Measurements published in patent publication US12643871B2, “Aryl formamide compound containing chiral sulfur oxide or salt thereof, preparation method, herbicidal composition and use thereof” (Qingdao Kingagroot Chemical Compound Co., Ltd., priority 2019, dated 2026).

Legend:
Abutilon theophrasti [1] = assay: Comparison experiment (post-emergence) against racemate / S configuration; format: in vivo; conditions: 30 g/ha; 3-4 weeks after sowing, 4-5 leaf-stage of weed, 25DAA
Source text: (§1) The above growth control rates are fresh weight control rates.
(§2) Experiment on weeding effect in post-emergence stage: monocotyledonous and dicotyledonous weed seeds (Descurainia sophia, Capsella bursa-pastoris, Galium aparine, Stellaria media, Lithospermum arvense, Rorippa indica, Alopecurus aequalis, Beckmannia syzigachne, Sclerochloa dura, Phleum paniculatum, Bromus japonicus, Aegilops tauschii, Phalaris arundinacea, Amaranthus retroflexus, Chenopodiaceae, Commelina communis, Sonchus arvensis, convolvulus arvensis, Cirsium setosum, Solanum nigrum, Acalypha australis, Digitaria sanguinalis, Echinochloa crusgalli, Setaria viridis, Setaria glauca, Leptochloa chinensis, Monochoria vaginalis, Sagittaria trifolia, Scirpus juncoides, Cyperus rotundus, Cyperus iria, Cyperus difformis, Fimbristylis, Portulaca oleracea, Xanthium sibiricum, Pharbitis nil) and major crop seeds (wheat, corn, rice, soybean, cotton, oilseed rape, millet, sorghum, potato, sesame, ricinus) were placed in plastic pots filled with soil, then covered with 0.5-2 cm of soil, allowed to grow in a good greenhouse environment. […] The tested compounds of the present invention were respectively dissolved in acetone, then added with Tween 80 and 1.5 liter/ha of emulsifiable concentrate of methyl oleate as synergist, diluted with a certain amount of water to obtain a solution with a certain concentration, and sprayed with a spray tower onto the plants. […]
(§3) If there is no clear marker, the post-seedling test conditions are the same as above, and the experimental results are shown in Tables 4-7.

Leptochloa chinensis [2] = assay: as above; format: in vivo
Source text: as §1, §2, §3

Green Setaria viridis = assay: as above; format: in vivo; conditions: 3-4 weeks after sowing, 4-5 leaf-stage of weed
Source text: as §1, §2, §3

Rice = assay: Transplanted rice safety evaluation; format: in vivo, rice (japonica rice/Indica rice); conditions: 60 g/ha; transplanted 3 leaf stage rice, 21 days after treatment
Source text: (§4) The activity level criteria for harmful plant damage (i.e., growth control rate) are as follows: • Level 5: growth control rate is above 85%; • Level 4: growth control rate is greater than or equal to 60% and less than 85%; • Level 3: growth control rate is greater than or equal to 40% and less than 60%; • Level 2: growth control rate is greater than or equal to 20% and less than 40%; • Level 1: growth control rate is greater than or equal to 5% and less than 20%; • Level 0: growth control rate is less than 5%.
In addition, the rice field soil that loaded into the 1/1,000,000 ha pot was leveled to keep water storage at 3-4 cm depth. The 3 leaf stage rice (japonica rice/Indica rice) was transplanted at 3 cm of transplanting depth the next day. The compound of the present invention was treated by the same way after 5 days of transplantation.
(§5) The fertility condition of Echinochloa crusgali, Scirpus juncoides, Bidens tripartita, Leptochloa chinensis, Sagittaria trifolia and Monochoria vaginalis 14 days after the treatment of the compound of the invention and the fertility condition of rice 21 days after the treatment of the compound of the invention respectively with the naked eye. Evaluate the weed control effect with 0-5 activity standard level. Many compounds show excellent activity and selectivity.

Digitaria sanguinalis [3] = assay: Comparison experiment (post-emergence) against racemate / S configuration; format: in vivo; conditions: 30 g/ha; 3-4 weeks after sowing, 4-5 leaf-stage of weed, 25DAA
Rice(Longyang 16) = assay: Comparison experiment (post-emergence), crop safety on direct seeding rice; format: in vivo
Source text: as §1
Experiment on weeding effect in post-emergence stage: monocotyledonous and dicotyledonous weed seeds (Descurainia sophia, Capsella bursa-pastoris, Galium aparine, Stellaria media, Lithospermum arvense, Rorippa indica, Alopecurus aequalis, Beckmannia syzigachne, Sclerochloa dura, Phleum paniculatum, Bromus japonicus, Aegilops tauschii, Phalaris arundinacea, Amaranthus retroflexus, Chenopodiaceae, Commelina communis, Sonchus arvensis, convolvulus arvensis, Cirsium setosum, Solanum nigrum, Acalypha australis, Digitaria sanguinalis, Echinochloa crusgalli, Setaria viridis, Setaria glauca, Leptochloa chinensis, Monochoria vaginalis, Sagittaria trifolia, Scirpus juncoides, Cyperus rotundus, Cyperus iria, Cyperus difformis, Fimbristylis, Portulaca oleracea, Xanthium sibiricum, Pharbitis nil) and major crop seeds (wheat, corn, rice, soybean, cotton, oilseed rape, millet, sorghum, potato, sesame, ricinus) were placed in plastic pots filled with soil, then covered with 0.5-2 cm of soil, allowed to grow in a good greenhouse environment. After 2 weeks of sowing, the test plants were treated in the 2 leaf stage. The tested compounds of the present invention were respectively dissolved in acetone, then added with Tween 80 and 1.5 liter/ha of emulsifiable concentrate of methyl oleate as synergist, diluted with a certain amount of water to obtain a solution with a certain concentration, and sprayed with a spray tower onto the plants. After the application, the plants were cultured for 15 days in the greenhouse, and then the experimental results of the weeding were counted. The doses of the used compounds were 500, 250, 125, 60, 30, 15 g/ha, and the averages were obtained by repeating for three times.
as §3
Longyang 16 is an important cultivated variety representative of long-grain fragrant rice in northeast China. Long-grain fragrant rice is sensitive to herbicides and prone to drug damage, especially HPPD herbicides such as mesotrione and benzobicylon. […] It was not consistent with the well-known structure-activity relationship that aryloxyphenoxypropionic acid herbicides and phenoxypropionic acid herbicides in effective form have high activity to weeds and heavy damage to crops, and in ineffective form have almost no activity.

Amaranthus retroflexus = assay: Weeding effect in post-emergence stage; format: in vivo; conditions: 250 g/ha; 2 leaf stage; 15 days after application; fresh weight control rate
Procedure, shortened: (§6)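 Two-leaf-stage pot plants, spray-tower application at 500/250/125/60/30/15 g/ha with methyl oleate EC synergist; fresh weight control level (0–5) read at 15 days post-treatment, three replicates averaged.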

Digitaria sanguinalis [4] = assay: Weeding effect in post-emergence stage; format: in vivo; conditions: 250 g/ha; 2 leaf stage; 15 days after application; fresh weight control rate
Procedure, shortened: as §6

Abutilon theophrasti [5] = assay: Weeding effect in post-emergence stage; format: in vivo; conditions: 250 g/ha; 2 leaf stage; 15 days after application; fresh weight control rate
Procedure, shortened: as §6

Setaria viridis = assay: Weeding effect in post-emergence stage; format: in vivo; conditions: 250 g/ha; 2 leaf stage; 15 days after application; fresh weight control rate
Procedure, shortened: as §6

Echinochloa crusgali [6] = assay: Weeding effect in post-emergence stage; format: in vivo; conditions: 250 g/ha; 2 leaf stage; 15 days after application; fresh weight control rate
Procedure, shortened: as §6

Monochoria vaginalis = assay: Weed control effect evaluation in rice field; format: in vivo; conditions: 60 g/ha; rice field pot, 14 days after treatment; ALS-inhibitor resistant weed from Heilongjiang
Source text: as §4
(§7) Rice field soil was loaded into a 1/1,000,000 ha pot. The seeds of Echinochloa crusgali, Scirpus juncoides, Bidens tripartita, Sagittaria trifolia, Monochoria vaginalis and Leptochloa chinensis were sowed and gently covered with soil, then left to stand still in greenhouse in the state of 0.5-1 cm of water storage. The tuber of Sagittaria trifolia was planted in the next day or 2 days later. It was kept at 3-4 cm of water storage thereafter. The weeds were treated by dripping the WP or SC water diluents prepared according to the common preparation method of the compounds of the present invention with pipette homogeneously to achieve specified effective amount when Echinochloa crusgali, Scirpus juncoides, Bidens tripartita, Monochoria vaginalis and Leptochloa chinensis reached 0.5 leaf stage and Sagittaria trifolia reached the time point of primary leaf stage.
as §5

Leptochloa chinensis [7] = assay: Weed control effect evaluation in rice field; format: in vivo; conditions: 60 g/ha; rice field pot, 14 days after treatment
Source text: as §4, §7, §5

Echinochloa crusgali [8] = assay: Weed control effect evaluation in rice field; format: in vivo; conditions: 60 g/ha; rice field pot, 14 days after treatment; ALS-inhibitor resistant weed from Heilongjiang
Source text: as §4, §7, §5

Sagittaria trifolia = assay: Weed control effect evaluation in rice field; format: in vivo; conditions: 60 g/ha; rice field pot, 14 days after treatment; ALS-inhibitor resistant weed from Heilongjiang
Source text: as §4, §7, §5

**Q.** `CCC[S@@+]([O-])c1c(C(F)(F)F)ccc(C(=O)Nc2nnc(C)o2)c1F` [Compound 3] was tested. Which “Results of comparison experiment, Abutilon theophrasti (30 g/ha)” value (Abutilon theophrasti [1]) did it give?
**A.** 100%

**Q.** And the “Results of comparison experiment, Leptochloa chinensis (60 g/ha)” value (Leptochloa chinensis [2]; 60 g/ha, 3-4 weeks after sowing, 4-5 leaf-stage of weed, 25DAA)?
**A.** 85%

**Q.** And the “Results of comparison experiment, Leptochloa chinensis (125 g/ha)” value (Leptochloa chinensis [2]; 125 g/ha, 3-4 weeks after sowing, 4-5 leaf-stage of weed, 25 DAA (Table 5))?
**A.** 100%

**Q.** And the “activity against key weeds such as Leptochloa chinensis, in words” value (Leptochloa chinensis [2]; summary of Table 5)?
**A.** better activity

**Q.** And the “Results of comparison experiment, Green Setaria viridis (30 g/ha)” value (Green Setaria viridis; 30 g/ha, 25 DAA (Table 5))?
**A.** 75%

**Q.** What about the “Results of comparison experiment, Green Setaria viridis (60 g/ha)” value (Green Setaria viridis; 60 g/ha, 25DAA) of the same compound?
**A.** 100%

**Q.** And the “Herbicidal effects of compounds, Rice, 0-5 activity standard level” value (Rice)?
**A.** 0 (Level 0: growth control rate is less than 5%)

**Q.** And the “Results of comparison experiment, Digitaria sanguinalis (30 g/ha)” value (Digitaria sanguinalis [3])?
**A.** 100%

**Q.** What about the “Results of comparison experiment, Rice(Longyang 16) (250 g/ha)” value (Rice(Longyang 16); 250 g/ha, 1.5-2 leaf-stage of direct seeding rice variety Longyang 16, 25 DAA) of the same compound?
**A.** 0%

**Q.** And the “Results of comparison experiment, Rice(Longyang 16) (500 g/ha)” value (Rice(Longyang 16); 500 g/ha, 1.5-2 leaf-stage of direct seeding rice variety Longyang 16, 25 DAA)?
**A.** 0%

**Q.** What about the “safety to rice (Longyang 16), in words” value (Rice(Longyang 16); summary of Table 5) of the same compound?
**A.** higher safety

**Q.** What about the “weeding effect in post-emergence stage, activity level (growth control rate), Amaranthus retroflexus” value (Amaranthus retroflexus) of the same compound?
**A.** 5 (Level 5: growth control rate is above 85%)

**Q.** What about the “weeding effect in post-emergence stage, activity level (growth control rate), Digitaria sanguinalis” value (Digitaria sanguinalis [4]) of the same compound?
**A.** 5 (Level 5: growth control rate is above 85%)

**Q.** What about the “weeding effect in post-emergence stage, activity level (growth control rate), Abutilon theophrasti” value (Abutilon theophrasti [5]) of the same compound?
**A.** 5 (Level 5: growth control rate is above 85%)

**Q.** What about the “weeding effect in post-emergence stage, activity level (growth control rate), Setaria viridis” value (Setaria viridis) of the same compound?
**A.** 5 (Level 5: growth control rate is above 85%)

**Q.** What about the “weeding effect in post-emergence stage, activity level (growth control rate), Echinochloa crusgali” value (Echinochloa crusgali [6]) of the same compound?
**A.** 5 (Level 5: growth control rate is above 85%)

**Q.** And the “Herbicidal effects of compounds, Monochoria vaginalis, 0-5 activity standard level” value (Monochoria vaginalis)?
**A.** 5 (Level 5: growth control rate is above 85%)

**Q.** What about the “Herbicidal effects of compounds, Leptochloa chinensis, 0-5 activity standard level” value (Leptochloa chinensis [7]) of the same compound?
**A.** 5 (Level 5: growth control rate is above 85%)

**Q.** What about the “Herbicidal effects of compounds, Echinochloa crusgali, 0-5 activity standard level” value (Echinochloa crusgali [8]) of the same compound?
**A.** 5 (Level 5: growth control rate is above 85%)

**Q.** What about the “Herbicidal effects of compounds, Sagittaria trifolia, 0-5 activity standard level” value (Sagittaria trifolia) of the same compound?
**A.** 5 (Level 5: growth control rate is above 85%)
